US20240076609A1, “COMPOSITIONS AND METHODS FOR CULTURING AND EXPANDING CELLS” (LIFE TECHNOLOGIES CORPORATION, priority 2017, published 2024)
Values joined by “and” are separate entries in the source; they are usually repeats but may differ in a detail not shown here. Equal values may be shown once.

Columns and labels:
[1] = tested on: Pan CD3+ T cells; assay: T cell expansion with 2-DG titration (population doublings); assay type: cell-based, human
Protocol: 2-Deoxy-D-Glucose Preparation: 2-Deoxy-D-Glucose (2-DG, 164.16 g/mol) was manufactured by (Acros Organics, cat. no. 111980-250). The 2-DG solution was prepared in sterile filtered water at a stock concentration of 100 mM, then aliquoted in Eppendorf tubes at a final volume of 1 mL in each tube. Cell Culture: T cell isolation: De-identified, frozen apheresis bags from normal donors were obtained from HemaCare Corp. Van Nuys, CA 91406. T cells were negatively isolated from PBMCs with the DYNABEADS® […] Human T Cells kit (Thermo Fisher Scientific, Cat. No. 11344D). T cell activation and expansion: T cells (seeding density 1×10^6 vc/mL) were activated with DYNABEADS® Human T-Expander CD3/CD28 (Thermo Fisher Scientific, Cat. No. 11141D) at a ratio of 3 beads per T cell and cultured in serum-free medium, animal origin free medium. T cells were counted on days 5, 7, 10, and 12 on a Vi-CELL XR analyzer (Beckman Coulter, Indianapolis IN) and fed with or without 2-DG (0.25 mM, 0.5 mM, 1 mM, 2 mM, and 4 mM) and 5% human AB serum to a density of 5×10^5 vc/mL on days 3, 5, and 7 and 1×10^6 vc/mL on day 10. 2-Deoxy-D-Glucose Preparation: 2-Deoxy-D-Glucose (2-DG, 164.16 g/mol) is manufactured by Acros Organics (part of Thermo Fisher Scientific). The 2-DG solution was prepared in sterile filtered water at a stock concentration of 100 mM, then aliquoted in Eppendorf tubes at a final volume of 1 mL in each tube. Cell Culture: T cell isolation: De-identified, frozen apheresis bags from normal donors were obtained from HemaCare. T cells were negatively isolated from PBMCs with the DYNABEADS® […] Human T Cells kit (Thermo Fisher Scientific, Cat. No. 11344D). T cell activation and expansion: T cells (seeding density 1×10^6 vc/mL) were activated with DYNABEADS® Human T-Expander CD3/CD28 (Thermo Fisher Scientific, Cat. No. 11141D) at a ratio of 3 beads per T cell and cultured in serum-free medium, animal origin free medium. T cells were counted on days 5, 7, 10, and 12 on a Vi-CELL XR analyzer (Beckman Coulter, Indianapolis IN) and fed with or without 2-DG (0.25 mM, 0.5 mM, 1 mM, 2 mM, and 4 mM) and 5% human AB serum to a density of 5×10^5 vc/mL on days 3, 5, and 7 and 1×10^6 vc/mL on day 10.

[2] = tested on: mixed CD4+ T cells and CD8+ T cells; assay: CD4+/CD8+ frequencies after 10 days with 2-DG in mixed CD4+:CD8+ cells (5:1, 10:1); assay type: cell-based, human; settings: 0.25 mM 2-DG; for correction of deficits in CD8+ T cells compared to day 0: CD4+:CD8+ mixed 5:1 and 10:1
Protocol: For some studies, CD8+ and CD4+ T cells were isolated from PBMCs by negative selection using Untouched Human CD8+ and CD4+ T Cells Kits. Naïve and non-naïve T cells were isolated from enriched T cells by positive selection using CD45RA nanobeads (Miltenyi). Phenotype: Primary human T cells were expanded for 10 days with and without 2-DG and 5% human AB serum. DYNABEADS® were removed from 2×10^6 cells by magnetic separation. Surface staining was performed with antibodies against CD3 (Invitrogen, Cat. No. CD0329), CD4 (Molecular Probes, Cat. No. A15858), CD8 (Invitrogen, Cat. No. MHCD0828). Flow cytometric analysis was performed on a Gallios flow cytometer and Kaluza software (Beckman Coulter, Indianapolis IN). For some studies, CD8+ and CD4+ T cells were isolated from PBMCs by negative selection using Untouched Human CD8+ and CD4+ T Cells Kits. Naïve and non-naïve T cells were isolated from enriched T cells by positive selection using CD45RA nanobeads (Miltenyi). Phenotype: Primary human T cells were expanded for 10 days with and without 2-DG and 5% human AB serum. DYNABEADS® were removed from 2×10^6 cells by magnetic separation. Surface staining was performed with antibodies against CD3 (Invitrogen, Cat. No. CD0329), CD4 (Molecular Probes, Cat. No. A15858), CD8 (Invitrogen, Cat. No. MHCD0828). Flow cytometric analysis was performed on a Gallios flow cytometer and Kaluza software (Beckman Coulter, Indianapolis IN).

[3] = Day 10, 10:1 CD4+ CD8+ ratio, average
[4] = Day 10, 5:1 CD4+ CD8+ ratio, replicates
[5] = Day 10, 10:1 CD4+ CD8+ ratio, replicates

## O=CC[C@@H](O)[C@H](O)[C@H](O)CO [2-DG, 2-Deoxy-D-Glucose]
[1]; 0.25 mM 2-DG, day 5, Table 12
  Cultured T Cell Population Doublings: 1.79
[1]; 0.25 mM 2-DG, day 5, single values, Table 31
  Cultured T Cell Population Doublings: 1.44 and 1.64 and 1.57
[1]; 0.25 mM 2-DG, day 7, Table 12
  Cultured T Cell Population Doublings: 3.67
[1]; 0.25 mM 2-DG, day 7, single values, Table 31
  Cultured T Cell Population Doublings: 3.40 and 3.54 and 3.35
[1]; 0.25 mM 2-DG, day 10, Table 12
  Cultured T Cell Population Doublings: 6.20
[1]; 0.25 mM 2-DG, day 10, single values, Table 31
  Cultured T Cell Population Doublings: 4.85 and 5.70 and 5.81
[1]; 0.25 mM 2-DG, day 12, Table 12
  Cultured T Cell Population Doublings: 6.49
[1]; 0.25 mM 2-DG, day 12, single values, Table 31
  Cultured T Cell Population Doublings: 5.72 and 6.57 and 6.47
[1]; 0.5 mM 2-DG, day 5, Table 12
  Cultured T Cell Population Doublings: 1.81
[1]; 0.5 mM 2-DG, day 5, single values, Table 31
  Cultured T Cell Population Doublings: 1.40 and 1.69 and 1.04
[1]; 0.5 mM 2-DG, day 7, Table 12
  Cultured T Cell Population Doublings: 4.17
[1]; 0.5 mM 2-DG, day 7, single values, Table 31
  Cultured T Cell Population Doublings: 3.95 and 3.32 and 3.33
[1]; 0.5 mM 2-DG, day 10, Table 12
  Cultured T Cell Population Doublings: 6.07
[1]; 0.5 mM 2-DG, day 10, single values, Table 31
  Cultured T Cell Population Doublings: 5.06 and 6.28 and 6.75
[1]; 0.5 mM 2-DG, day 12, Table 12
  Cultured T Cell Population Doublings: 6.16
[1]; 0.5 mM 2-DG, day 12, single values, Table 31
  Cultured T Cell Population Doublings: 6.13 and 6.22 and 6.48
[1]; 1 mM 2-DG, day 5, Table 12
  Cultured T Cell Population Doublings: 1.15
[1]; 1 mM 2-DG, day 5, Table 25
  Cultured T Cell Population Doublings: 2.08
[1]; 1 mM 2-DG, day 7, Table 12
  Cultured T Cell Population Doublings: 3.40
[1]; 1 mM 2-DG, day 7, Table 25
  Cultured T Cell Population Doublings: 3.87
[1]; 1 mM 2-DG, day 10, Table 12
  Cultured T Cell Population Doublings: 4.93
[1]; 1 mM 2-DG, day 10, Table 25
  Cultured T Cell Population Doublings: 7.19
[1]; 1 mM 2-DG, day 12, Table 12
  Cultured T Cell Population Doublings: 4.60
[1]; 1 mM 2-DG, day 12, Table 25
  Cultured T Cell Population Doublings: 7.00
[1]; 2 mM 2-DG, day 5, Table 12
  Cultured T Cell Population Doublings: 0.15
[1]; 2 mM 2-DG, day 5, Table 25
  Cultured T Cell Population Doublings: 1.87
[1]; 2 mM 2-DG, day 7, Table 12
  Cultured T Cell Population Doublings: 1.33
[1]; 2 mM 2-DG, day 7, Table 25
  Cultured T Cell Population Doublings: 3.53
[1]; 2 mM 2-DG, day 10, Table 12
  Cultured T Cell Population Doublings: 3.29
[1]; 2 mM 2-DG, day 10, Table 25
  Cultured T Cell Population Doublings: 7.10
[1]; 2 mM 2-DG, day 12, Table 12
  Cultured T Cell Population Doublings: 2.44
[1]; 2 mM 2-DG, day 12, Table 25
  Cultured T Cell Population Doublings: 6.90
[1]; 4 mM 2-DG
  population doublings: about 6 population doublings
[1]; 4 mM 2-DG, day 5, Table 12
  Cultured T Cell Population Doublings: 2.24
[1]; 4 mM 2-DG, day 5, Table 25
  Cultured T Cell Population Doublings: 1.92
[1]; 4 mM 2-DG, day 7, Table 12
  Cultured T Cell Population Doublings: 3.84
[1]; 4 mM 2-DG, day 7, Table 25
  Cultured T Cell Population Doublings: 3.95
[1]; 4 mM 2-DG, day 10, Table 12
  Cultured T Cell Population Doublings: 6.78
[1]; 4 mM 2-DG, day 10, Table 25
  Cultured T Cell Population Doublings: 7.50
[1]; 4 mM 2-DG, day 12, Table 12
  Cultured T Cell Population Doublings: 6.63
[1]; 4 mM 2-DG, day 12, Table 25
  Cultured T Cell Population Doublings: 7.35
[1]; 2-DG at 0.25 mM and 0.5 mM
  expansion compared to control: expansion comparable to control
[1]; concentrations tested 0.25-4 mM
  effect of 2-DG supplementation on T cell growth: does not affect T cell growth even with lower concentrations
[2]; Day 10, 10:1 CD4+ CD8+ ratio
  % CD4+: 44.89% and 44.25%
  % CD4+ (Avg): 44.57%
  % CD8+: 43.55% and 45.35%
  % CD8+ (Avg): 44.45%
[2]; [3]
  % CD4+ (Avg): 44.57%
  % CD8+ (Avg): 44.45%
[2]; Day 10, 5:1 CD4+ CD8+ ratio
  % CD4+ (Avg): 33.39%
  % CD8+ (Avg): 53.83%
[2]; [4]
  % CD4+: 32.91% and 33.88%
  % CD8+: 53.50% and 54.17%
[2]; [5]
  % CD4+: 44.25% and 44.89%
  % CD8+: 45.35% and 43.55%
[2]
  correction of deficits in CD8+ T cells compared to day 0: able to correct for a large deficits in CD8+ T cells
[2]; listed as 2-DH
  correction of deficits in CD8+ T cells compared to day 0: able to correct for substantial deficits in CD8+ T cells
